Measurements from publication PMC6802847, “Mutual role of ecto-5'-nucleotidase/CD73 and concentrative nucleoside transporter 3 in the intestinal uptake of dAMP” (PLoS ONE, 2019).

Experiments:
[1] = molecular target: T1, concentrative nucleoside transporter 3 (CNT3) (Homo sapiens, UniProt Q9HAS3); assay: radiolabelled uptake ([…]) in COS-7 cells transiently expressing CNT3 vs mock; assay type: cell-based
T1 construct: gene SLC28A3
T1 sequence (Q9HAS3 1-691): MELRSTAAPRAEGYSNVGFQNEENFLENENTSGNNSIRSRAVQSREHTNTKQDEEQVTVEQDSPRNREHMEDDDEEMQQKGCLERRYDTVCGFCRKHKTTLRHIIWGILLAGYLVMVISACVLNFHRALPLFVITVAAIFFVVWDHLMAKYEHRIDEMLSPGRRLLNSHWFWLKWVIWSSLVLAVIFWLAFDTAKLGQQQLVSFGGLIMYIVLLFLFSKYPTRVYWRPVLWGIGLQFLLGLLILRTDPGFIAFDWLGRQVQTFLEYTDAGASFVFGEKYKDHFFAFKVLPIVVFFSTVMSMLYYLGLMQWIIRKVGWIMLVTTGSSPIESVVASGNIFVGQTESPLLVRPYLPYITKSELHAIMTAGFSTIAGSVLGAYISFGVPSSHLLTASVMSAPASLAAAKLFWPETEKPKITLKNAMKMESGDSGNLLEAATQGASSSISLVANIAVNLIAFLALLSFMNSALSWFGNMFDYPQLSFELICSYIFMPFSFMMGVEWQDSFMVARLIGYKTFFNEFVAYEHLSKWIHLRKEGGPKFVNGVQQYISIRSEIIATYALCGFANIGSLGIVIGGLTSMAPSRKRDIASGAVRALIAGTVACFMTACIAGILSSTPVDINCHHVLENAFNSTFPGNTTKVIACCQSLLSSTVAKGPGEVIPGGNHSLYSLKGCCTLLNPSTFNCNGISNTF

[2] = molecular target: T2, ecto-5'-nucleotidase/CD73 (Homo sapiens, UniProt P21589); assay: phosphate release from […] dAMP in COS-7 cells expressing CD73
T2 construct: gene NT5E
T2 sequence (P21589 27-549): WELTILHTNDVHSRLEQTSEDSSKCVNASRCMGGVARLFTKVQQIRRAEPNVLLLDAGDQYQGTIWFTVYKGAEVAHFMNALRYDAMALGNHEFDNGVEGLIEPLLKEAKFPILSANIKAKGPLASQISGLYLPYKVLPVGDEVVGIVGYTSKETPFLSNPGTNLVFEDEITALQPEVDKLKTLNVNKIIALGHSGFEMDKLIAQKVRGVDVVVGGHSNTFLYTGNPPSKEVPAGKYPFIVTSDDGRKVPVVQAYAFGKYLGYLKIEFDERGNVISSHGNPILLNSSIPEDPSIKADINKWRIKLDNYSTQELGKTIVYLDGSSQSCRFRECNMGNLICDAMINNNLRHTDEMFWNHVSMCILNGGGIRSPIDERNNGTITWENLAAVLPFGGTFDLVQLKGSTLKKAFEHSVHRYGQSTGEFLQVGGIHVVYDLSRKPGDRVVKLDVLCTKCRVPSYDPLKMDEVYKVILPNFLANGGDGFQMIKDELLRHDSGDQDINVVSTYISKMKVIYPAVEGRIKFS

[3] = molecular target: T1, concentrative nucleoside transporter 3 (CNT3); assay: radiolabelled uptake ([…]) in COS-7 cells transiently expressing CNT3 vs empty vector; assay type: cell-based
[4] = substrate: Nc1ncnc2c1ncn2C1CC(O)C(CO)O1; assay: cells, lysate or membranes; conditions: Na+
[5] = substrate: Nc1ncnc2c1ncn2[C@H]1C[C@H](O)[C@@H](COP(=O)(O)O)O1; assay: cells, lysate or membranes; conditions: Na+

## Cc1cn([C@H]2C[C@H](O)[C@@H](CO)O2)c(=O)[nH]c1=O [thymidine]
[1]
  radiolabelled uptake (10 nM) in COS-7 cells transiently expressing CNT3 vs mock: Transfection of CNT3 cDNA into COS-7 cells resulted in an increased uptake of [^3H]thymidine, a typical substrate of CNT3

## Nc1ncnc2c1ncn2[C@H]1C[C@H](O)[C@@H](COP(=O)(O)O)O1 [2'-deoxyadenosine 5'-monophosphate]
[2]
  phosphate release from 10 μM dAMP in COS-7 cells expressing CD73: the phosphate release from dAMP was significantly increased by the introduction of CD73 into COS-7 cells

## Nc1ncnc2c1ncn2[C@@H]1O[C@H](COP(=O)(O)O)[C@@H](O)[C@H]1O [Adenosine 5'-monophosphate]
[3]
  radiolabelled uptake (10 nM) in COS-7 cells transiently expressing CNT3 vs empty: enhanced cellular uptake of [^3H]AMP with the introduction of CNT3 alone was greater than that of [^3H]dAMP

B1: concentrative nucleoside transporter 3 (CNT3) (Homo sapiens) (protein)
chain: T1 sequence (Q9HAS3 1-691)
[4]
  Km: 56.3 ± 7.0 µM
[5]
  Km: 59.6 ± 3.8 µM
